The values that follow come from patent publication US20200281243A1, “DIETARY PRODUCT” (CANCER RESEARCH TECHNOLOGY LTD, priority 2017, published 2020).

Test [1] deals with 4T1 cells. The test is described as follows: CellTrace Violet proliferation assay, parental 4T1 cells. The test is classed as cell-based, mouse. Particulars: asparagine supplementation, 24 hours. As to the method:
(§1) For the mCherry competition assay, shRNA-transduced mCherry-positive cells were admixed with untransduced cells. mCherry fluorescence was quantified on the LSR II flow cytometer (BD Biosciences). The proliferation assay was carried out using the CellTrace Violet Cell Proliferation Kit (Thermo Fisher Scientific). For FIG. 3b and FIG. 9e, 4T1 and MDA-MB-231 cells were cultured in media containing 100× concentration of the specified amino acid (relative to the concentration in 1×NEAA) for 2 days or 3 days, respectively, before starting the proliferation assay. Cells were stained with CellTrace violet and then trypsinized and re-suspended in media. After 24 hours, cells were collected in order to quantify violet fluorescence intensity using the SH800 flow cytometer (Sony).

Test [2] relates to Asns-silenced 4T1-T cells. As to the kind of experiment: mCherry competition assay, Asns-silenced cells. The test is classed as cell-based, mouse. The following applies: media supplemented with asparagine. As to the method:
as §1

Test [3] has as its system Asns-silenced 4T1-T cells. As to the kind of experiment: Matrigel invasion assay, Asns-silenced cells. The test is classed as cell-based, mouse. Particulars: media supplemented with asparagine. As to the method:
(§2) The in vitro invasive capacity of cells was measured using 6-well BioCoat Matrigel invasion plates. For parental 4T1 cells, 1×10^6 cells were plated on individual wells, for 4T1-T cells, 8×10^5 cells were plated on individual wells and for MDA-MB-231 cells, 5×10^5 cells were used per individual well. Cells were resuspended in media without serum and cells invaded into media with 5% fetal bovine serum and 5% fetal calf serum. For FIG. 3b and FIG. 9e, 4T1 and MDA-MB-231 cells were cultured in media containing 100× concentration of the specified amino acid (relative to the concentration in 1×NEAA) for 2 days or 3 days, respectively, before starting the invasion assay. After 24 h, non-invaded cells were removed and the invasion wells were washed in PBS, fixed in 2% glutalaldehyde for 2 min and stained with 0.5% crystal violet for 10 min. The wells were washed in distilled H2O, air-dried and scanned using the Odyssey infrared scanner. The signal was quantified using ImageJ (NIH).

For the next test, the system named is MDA-MB-231 cells. The test is described as follows: CellTrace Violet proliferation assay, MDA-MB-231 cells. The test is classed as cell-based, human. The following applies: asparagine supplementation, 24 hours. As to the method: as §1
Test [4] concerns 4T1 cells. As to the kind of experiment: Matrigel invasion assay, parental 4T1 cells. The test is classed as cell-based, mouse. The following applies: media supplemented with asparagine (100× of 1×NEAA, 2 days), 24 h matrigel invasion. As to the method: as §2
The subject of another test is EMT-up genes. The test is described as follows: RNAseq of EMT-up genes. The test is classed as cell-based, mouse. The following applies: parental 4T1 cells grown in asparagine supplemented media.
The next test relates to EMT-up proteins. The test is described as follows: iTRAQ proteomic profiling of EMT-up proteins. Format: cell-based, mouse. Particulars: parental 4T1 cells; media supplemented with asparagine. From the text:
Cells were washed in ice cold PBS and harvested for iTRAQ quantitative proteomics as previously described in Ross et al. 2004. Three replicates were utilized for each cell line.

For another test, the system named is 4T1-T cells. The test is described as follows: Orthotopic injection of Asns-silenced or -expressing 4T1-T cells into NSG mice. Format: in vivo, mouse. The following applies: Asns-silenced 4T1 cells orthotopic; L-asparaginase treated mice. As to the method: (§3) All mouse experiments were approved by the Cold Spring Harbor Animal Care and Use Committee. The maximal permitted tumour size of 20 mm in any direction was never exceeded. All mouse injections were carried out with 6-8-week-old female NOD-SCID-112rg^−/− (NSG) mice (JAX). Balb/c mice were not used in this study as the different clonal cell lines have variable GFP levels due to the lentiviral barcode vector. Tail vein injections were carried out using 5×10^5 mouse mammary tumor cells, which were re-suspended in 100 ul of PBS and injected via tail vein. Orthotopic injections were performed using 1×10^5 mouse mammary tumor cells or 5×10^5 MDA-MB-231 cells. For this, cells were re-suspended in a 1:1 mix of PBS and growth factor reduced Matrigel (BD Biosciences). A volume of 20 ul was injected into the mammary gland #4 for mouse mammary tumor cells and a volume of 40 ul was injected for MDA-MB-231 cells. Primary tumor volume was measured using the formula V=½(L×W^2), where L is length and W is width of the primary tumor. For L-asparaginase studies, mice were administered 200 ul of 60U of L asparaginase 5× per week through intraperitoneal injections. […]
(§4) For each lung, five-micron sections were prepared and stained with a standard H&E protocol. Lung metastatic burden was determined by counting individual lung nodules on one section.

Another test relates to solid tumours. The following applies: Tallal et al. 1970; cited from earlier work.
Test [5] is described as follows: Free amino acid quantification in blood serum using HPLC. The test is classed as in vivo, mouse. The following applies: NSG mice; 60U L-asparaginase 5 times per week for 19 days. As to the method:
as §3, with “tumor.” for “tumor. For L-asparaginase studies, mice were administered 200 ul of 60U of L asparaginase 5× per week through intraperitoneal injections.”
Free amino acids were quantified in cultured cells and blood serum. […] Each sample was quantified in triplicates using High Performance Liquid Chromatography (HPLC) and a flourometric detector. For each replicate, nanomoles of each amino acid was measured. […]

The next test concerns Twist1 and E-cadherin. The test is described as follows: IHC staining for Twist1 and E-cadherin in primary tumours. The test is classed as in vivo, mouse. Particulars: primary tumours of mice treated with L-asparaginase. As to the method: as §3, with “A volume of 20 ul was injected into the mammary gland #4 for mouse mammary tumor cells and a volume of 40 ul was injected for MDA-MB-231 cells.” left out, “tumor.” for “tumor. For L-asparaginase studies, mice were administered 200 ul of 60U of L asparaginase 5× per week through intraperitoneal injections.”
For immunohistochemistry, primary tumors and lungs were processed as previously described in Wagenblast et al. 2015. […] Ecadherin and Twist1 diaminobenzidine-stained (DAB) and hematoxylin stainings were quantified using ImageJ (NIH). For this, images were color deconvoluted according to Ruifrok et al. 2001 and the percent area of E-cadherin and Twist1 positive staining was measured.

The next test relates to parental 4T1 cells. As to the kind of experiment: Orthotopic injection of parental 4T1 cells into NSG mice. Format: in vivo, mouse. The following applies: parental 4T1 orthotopic, 60U L-asparaginase 5 times per week for 19 days vs PBS. As to the method:
as §3, §4

Test [6] in a line: Metabolite profiling of mammary gland, serum and lungs by LC-MS/MS. The following applies: L-asparaginase treated animals. Format: in vivo, mouse. As to the method: as §3, with “tumor.” for “tumor. For L-asparaginase studies, mice were administered 200 ul of 60U of L asparaginase 5× per week through intraperitoneal injections.”
Dried-down extracts were re-suspended in 25 ul HPLC-grade water, and 1 ul was analyzed using hydrophilic interaction chromatography (HILIC) coupled to tandem mass spectrometry analysis (LC-MS/MS). […] Metabolite differences were analyzed by normalizing samples to total peak area and comparing replicates for each group using one-way ANOVA with multiple comparisons.

In the case of `NC(=O)C[C@H](N)C(=O)O` [asparagine], the growth entry in the test on 4T1 cells [1] and with MDA-MB-231 cells was “not impacted” throughout. Besides, the capacity to grow result in test [2] is on record as “increased”. Besides, the capacity to invade entry in [3] is given as “increased”. For the same compound, the increase in invasiveness entry in the test with 4T1 cells [4] is on record as “approximately 2 fold”. In addition, the “mRNA levels of EMT-up genes” value in the test on EMT-up genes was “increased”. Also, the “expression of EMT-up proteins” value in the test on EMT-up proteins is reported as “increased in expression”.

As to L-asparaginase, in the test on 4T1-T cells, the primary tumour volume entry is on record as “reduction” and the resultant metastases is “nearly undetectable”. For the same compound, the treating solid tumours result with solid tumours is listed as “ineffective”. For the same compound, the “serum asparagine (HPLC)” value in [5] was “undetectable”. Moreover, in the test on Twist1 and E-cadherin, the “Twist1 and E-cadherin expression (IHC)” value was “significant expression change”. For the same compound, the primary tumour volumes result in the test with parental 4T1 cells is recorded as “no significant difference”. In addition, the metastatic burden result in the test with parental 4T1 cells (lung) was “significant reduction”. In [6], the “asparagine in the serum (mass spectrometry)” value is “nearly undetectable”.
